Where a name gives a salt, the structure may show the parent alone.
B1: NL1: rat recombinant NL1 ectodomain obtained from R&D Systems (protein, UniProt Q62765 46-697, looked up)
extracellular domain: QKLDDVDPLVTTNFGKIRGIKKELNNEILGPVIQFLGVPYAAPPTGEHRFQPPEPPSPWSDIRNATQFAPVCPQNIIDGRLPEVMLPVWFTNNLDVVSSYVQDQSEDCLYLNIYVPTEDVKRISKECARKPGKKICRKGDIRDSGGPKPVMVYIHGGSYMEGTGNLYDGSVLASYGNVIVITVNYRLGVLGFLSTGDQAAKGNYGLLDLIQALRWTSENIGFFGGDPLRITVFGSGAGGSCVNLLTLSHYSEGNRWSNSTKGLFQRAIAQSGTALSSWAVSFQPAKYARILATKVGCNVSDTVELVECLQKKPYKELVDQDVQPARYHIAFGPVIDGDVIPDDPQILMEQGEFLNYDIMLGVNQGEGLKFVENIVDSDDGVSASDFDFAVSNFVDNLYGYPEGKDVLRETIKFMYTDWADRHNPETRRKTLLALFTDHQWVAPAVATADLHSNFGSPTYFYAFYHHCQTDQVPAWADAAHGDEVPYVLGIPMIGPTELFPCNFSKNDVMLSAVVMTYWTNFAKTGDPNQPVPQDTKFIHTKPNRFEEVAWTRYSQKDQLYLHIGLKPRVKEHYRANKVNLWLELVPHLHNLNDISQYTSTTTKVPSTDITLRPTRKNSTPVTSAFPTAKQDDPKQQPSPFSVDQRDYSTELS
modifications: extracellular domain
notes: rat recombinant NL1 ectodomain obtained from R&D Systems

Tests used:
[1] = MK-801 0.1 mg/kg, cited from earlier work
male Wistar rats [2] = assay: Y maze test (spontaneous alternation); format: in vivo, rat; details: n = 6-12
Procedure: NMDA-mediated effects of Neurolide-1 on spatial working memory performance was assessed by recording spontaneous alternation behavior in a Y maze test performed as described previously (Wegener et al. [2011]), (See Data S1). Initially, adult male Wister rats (420–490 g, n = 6–12; Charles River) were injected s.c., three times at 28, 4, and 2 h before start of the Y maze test. One group received Neurolide-1, saline, and neurolide-1 in this order. Another group received saline, MK-801, and saline in this order. A third group received neurolide-1, MK-801, and neurolide-1 in this order. And control group received saline at all times. In a second setup we tested the effect of neurolide-1 in very young male Wistar rats (4-weeks old) which received a s.c., injection of neurolide-1 or saline 2 h prior to testing them in the Y-maze (n = 11–15). Terminally, rats were rapidly and humanely rendered unconscious by concussive stunning and euthanized by cervical dislocation.
The maze was made of gray polyvinyl chloride, with three identical arms (425 mm length × 225 mm height × 145 mm width) mounted symmetrically to an equilateral triangular center section. Each rat was placed at the end of one arm and allowed to explore the apparatus freely for 8 min. The sequence and number of all arm entries were recorded for each animal throughout the testing period. An alternation was defined as entries into all three arms on consecutive occasions. Therefore, the number of maximal alternation was the total number of arm entries minus 2, and the percentage of alternation was calculated as (actual alternations / maximal alternations) × 100. The total number of arms entered during the sessions was also determined (Yamaguchi et al, 2006). Data were eliminated in cases in which the number of total arm entries was less than 10 or when the rat escaped from the Y maze. After each trial, the Y maze was cleaned with 1% Virkon S (Pharmaxim, Helsingborg, Sweden).

[3] = test system: hippocampal slices, CA3-CA1 synapse (fEPSP slope); assay: LTP in acute hippocampal slices from mice injected s.c.; format: in vivo, C57BL/6N mice; details: mice injected with MK-801 0.1 mg/kg s.c. alone, 1 h before sacrifice; slope 25-30 min after HFS vs before; mean ± SEM, n = 6
Procedure: Juvenile C57BL/6N mice of both sexes (postnatal day 16–24; Taconic, Ejby, Denmark) were injected subcutaneously (s.c.) with 10 mg/kg of the neurolide-1 peptide solution (10 mg/mL) and again 23 h later with 10 mg/kg of the neurolide-1 peptide solution (10 mg/mL) and 0.1 mg/kg MK-801 solution (0.025 mg/mL). Mice receiving the injection with the MK-801 solution only or untreated mice served as control groups. The young mice were rapidly and humanely euthanized with a minimum of distress by decapitation at a time point corresponding to 24 h after first injection. Preceding anesthetic was omitted to preserve the tissue free of drug residues and brain slice functions as unaltered as possible when performing the physiological measurements. After decapitation, the brain was removed. […]
Measurements were made in oxygenated aCSF at room temperature (1.1 mL/min). […] The field potential in the stratum radiatum of the CA1 area of the hippocampus was recorded with an extracellular glass microelectrode (4–6 MΩ, filled with aCSF), positioned at least 500 μm away from the stimulation electrode. […]

male Wistar rats [4] = assay: Spatial memory in the Morris water maze; format: in vivo; details: rat, n = 12
Procedure: The Morris water-maze test (Morris [1984]) was performed as previously described (Kraev et al. [2011]) with slight modifications (see Data S1). Male Wistar rats (Charles River), weighing 150–200 g on the day of arrival were used. To investigate for potential effects on memory consolidation, neurolide-1 was injected immediately after the training sessions on day 1 and 2 (n = 12 in each group). To test for potential effects on memory acquisition neurolide-1 was injected 2 h before start of training on training day 1 and 2 (n = 12 in each group). Finally, to test for potential effects on MK-801-induced learning deficiencies neurolide-1 was injected 2 h before start of training on day 2 and 3 in animals, which had received an injection with MK-801 30 min earlier (n = 6–9 in each group). In a slightly modified version of the MK-801 experiments a group of animals received a neurolide-1 injection immediately after the training sessions on day 1, and then a neurolide-1 injection 2 h before start of training on day 2, preceded by an MK-801 injection 30 min earlier (n = 12 in each group). Terminally, rats were rapidly and humanely rendered unconscious by concussive stunning and euthanized by cervical dislocation.
The Morris water maze test (Morris, 1984) was conducted in a 160 cm wide circular black tank placed in a dimly lit room and filled with 21°C water up to 20 cm from the top. The tank was surrounded by visual orientation marks, and a 10 cm wide escape platform was placed 1.5 cm below the water level for it to be unseen. A video camera was placed above the tank and connected to a computerized tracking system (Ethovision 3.1, Noldus IT, Wageningen, Holland). The tank was divided into four equal-size quadrants that also served as starting positions. The latency to locate the platform, time spent swimming, and swimming speed were scored within the defined zones (i.e., total area, quadrants, and a platform circle that was 60 cm in diameter with the center in the original platform location). Prior to training, the rats were handled 2 min daily for 5 days to minimize stress during the experiments.
Reference memory training consisted of three consecutive trials daily for 3 days. Each trial began with placing the animal in the water facing the wall of the pool. The starting position differed for each trial but was identical for all animals. In each trial, the animal was allowed 90 s to locate the platform. […] After each trial, the rats were allowed 20 s of orientation time on the platform and then removed from the pool for 20 s before the next trial was initiated. After the last trial each day, the animals were dried and returned to their home cages.
To test for effects on long-term memory, the animals were tested in a probe trial 24 h after the last reference memory training. In the probe trial, the platform was removed, and the animals began from a position in a quadrant adjacent to the original platform quadrant. The rats were allowed to swim for 60 s, after which the trial was stopped.

[5] = test system: NMDA receptor NR1 subunit (serine 897); assay: NMDA receptor phosphorylation assay (immunoblot, anti-phospho-Ser897-NR1) in cultured cortical neurons; format: cell-based, Wistar rat; details: cultured rat cortical neurons, 5 min stimulation, NL1 ectodomain up to 5.4 nmol/L, four independent experiments
Procedure: Cortical neurons were obtained from Wistar rat embryos at embryonic day 19, of both sexes, basically as previously described (Maar et al. [1997]) (see Data S1). Briefly, animals were rendered unconscious by concussive stunning and euthanized by cervical dislocation. Hereafter, the embryonic brains were collected and cortical neurons were dissociated and seeded in 60-mm tissue culture dishes coated with 1 μg/mL of poly-D-lysine (Sigma-Aldrich, St. Louis, MO) and grown for 8 days before treatment. Then, the cultures were stimulated with either the NL1 ectodomain (0.2, 0.6, 1.8, and 5.4 nmol/L) or neurolide-1 (0.1, 0.3, 1, and 2.7 μmol/L) for 5 min. The cells were lysed, and proteins were resolved by sodium dodecyl sulfate-polyacrylamide gel electrophoresis followed by immunoblotting using rabbit anti-Ser897-NR1 antibody (1:500; Millipore, Billerica, MA), mouse anti-β-tubulin antibody (1:50,000; Sigma-Aldrich), and IRDye secondary antibodies (Odyssey, Lincoln, NE). The bands were visualized using the Odyssey CLX Infrared Imaging System (Odyssey). Four independent experiments with stimulation by NL1 ectodomain and eight independent experiments with stimulation by neurolide-1 were performed.

Molecule	time after injection at which the increase in stereotypy peaked ([1]; returned to baseline 2 h later, ref Homayoun et al. [2004], Su et al. [2007]) [min]	motility ([1]; ref Verma and Moghaddam [1996], Homayoun et al. [2004])	alternation rate (male Wistar rats [2]; adult rats 420-490 g, MK-801 0.1 mg/kg s.c. 4 h before test) [%]	total number of arm entries, single treatment (male Wistar rats [2]; adult rats, peptide alone or MK-801 alone)	increase of fEPSP slope after high-frequency stimulation (LTP) [3] [%]	learning (escape latency) in the water maze (male Wistar rats [4]; MK-801 0.1 mg/kg s.c. on day 2, 2.5 h before first training session)	velocity in the water maze (male Wistar rats [4]; MK-801 0.1 mg/kg s.c. with or without neurolide-1 10 mg/kg s.c. (long-term regimen))	effect on NR1 phosphorylation at higher concentrations [5]
C[C@]12N[C@H](Cc3ccccc31)c1ccccc12 [MK-801, (5S,10R)-(+)-5-methyl-10,11-dihydro-5H-dibenzo[a,d]cyclohepten-5,10-imine maleate]	40	induce hypermotility	~50	did not change	27 ± 5	strongly inhibited learning	Neither treatments affected velocity	
B1								did not have a statistically significant effect
